In patent US8377913B2, “Vitamin D receptor activators and methods of making” (AbbVie Inc., priority 2007, dated 2013):

Assays:
Type in all cases: cell-based
[1] = test system: PAI-1 mRNA in human coronary artery smooth muscle cells (CASMC); assay: PAI-1 mRNA in CASMC; settings: for IC50: Homo sapiens
Procedure: (§1) Primary culture of human coronary artery smooth muscle cells (CASMC) (commercially available from Cambrex, Walkersville, Md.) were grown in smooth muscle growth medium SmGM-2 (commercially available from Lonza Bioscience) containing 5.5 mM glucose, 5% FBS, 50 μg/ml gentamicin, 50 ng/ml amphotericin-B, 5 μg/ml insulin, 2 ng/ml human recombinant fibroblast growth factor (hFGF), and 0.5 ng/ml human recombinant epidermal growth factor (hEGF) at 37° C. in a humidified 5% CO2-95% air atmosphere. Cells were grown to >80% confluence and used within five passages.
(§2) Real-time reverse transcription-PCR was performed with a MyiQ Real-Time PCR Detection System (BioRad, Hercules, Calif.). Each sample has a final volume of 25 μl containing 100 ng of cDNA, […] each of the forward and reverse PCR primers and […] of the TaqMan™ probe for the gene of interest (Applied Biosystems, Foster City, Calif.). Temperature conditions consisted of a step of 5 minutes at 95° C., followed by 40 cycles of 60° C. for 1 minute and 95° C. for 15 seconds. Data was collected during each extension phase of the PCR reaction and analyzed with the software package (BioRad, Hercules, Calif.). Threshold cycles were determined for each gene. […]

[2] = test system: Renin mRNA in As4.1 cells; assay: Renin mRNA in As4.1 cells transfected with pcDNA-hVDR (real-time RT-PCR)
Procedure: As4.1 cells (ATCC, Manassas, Va.) were cultured in Dulbecco's Modified Eagle Medium DMEM (commercially available from Invitrogen, Carlsbad, Calif.) with 10% fetal bovine serum at 37° C. in a humidified 5% CO2-95% air atmosphere. C3;ells were transfected with the pcDNA-hVDR plasmid (provided by Yan Chun Li, University of Chicago) by LIPOFECTAMINE™ 2000 (Invitrogen, Carlsbad, Calif.). siRNA was transfected with the pcDNA-hVDR plasmid by LIPOFECTAMINE™ 2000 according to the manufacturer's protocol. Twenty-four hours after transfection, cells were treated with test agents.
Real-time reverse transcription-PCR was performed with a MyiQ Real-time PCR Detection System (commercially available from BioRad, Hercules, Calif.). […] TaqMan™ probes that were 5′ labeled with the reporter 6-carboxyfluorescein (FAM) and 3′ labeled with the quencher tetramethylrhodamine (TAMRA) were used and the primer and probe sets were obtained from Applied Biosystems (Foster City, Calif.). Temperature conditions consisted of a step of 5 minutes at 95° C., followed by 45 cycles of 60° C. for 1 minute and 95° C. for 15 seconds. Data was collected during each extension phase of the PCR reaction and analyzed with the accompanying software package (BioRad, Hercules, Calif.). Threshold cycles were determined for each gene.

[3] = test system: Human promyelocytic leukemia (HL60) cells; assay: HL-60 Differentiation; settings: HL-60, 96 h, four days incubation, NBT, absorbance 570 nm
Procedure: Human promyelocytic leukemia (HL60) cells were obtained from the American Type Culture Collection (ATCC Cat. # CCL-240, Manassas, Va.). Cells were maintained in RPMI 1640 medium (commercially available from Invitrogen, Carlsbad, Calif.) containing 10% fetal bovine serum (commercially available from Invitrogen, Carlsbad, Calif.) at 37° C. with 5% CO2. Cells were passaged weekly and were not allowed to become >90% confluent. For the assay, cells were plated at 5×10^5 cells per well in 200 uL media. Test compounds were diluted in media in concentrations between 10^−6-10^−10 M and then added to the appropriate wells. Cells were then incubated for four days at 37° C. in 5% CO2 atmosphere. After incubation, media was aspirated from each well and 75 uL of NBT solution (nitroblue tetrazolinium: 200 ng/mL PMA (phorbol 12-myrystate 13-acetate) and 2 mg/ml NBT (nitroblue tetrazolium) in distilled H2O) was added to each well followed by further incubation for 2 hours at 37° C. Following incubation, 150 uL lysis buffer (225 mL dimethylformamide, 67.5 g SDS). PMA stock solution (2 mg/ml in ethanol) was added to each well and the plate was allowed to sit at room temperature for 4 hours. HL-60 cell differentiation was assayed, Effect of each compound on cell growth was examined as a function of time; absorbance in each well was measured at 570 nm.

[4] = test system: VDR (VDRE-luciferase-reporter construct); assay: VDRE Reporter Gene Assay in HEK cells with stable expression of VDR; settings: Homo sapiens, HEK293, 24 hours
Procedure: Compound activity was also assessed by looking at a Vitamin D Response Element (VDRE) reporter gene assay, Human Embryonic Kidney cells (HEK cells) with a stable expression of VDR were cultured in 96-well plates at ˜4×10^5 cells/mL (100 μL/well) in DMEM medium containing 10% fetal calf serum. Cells were transfected with 0.2 μg per well of a VDRE-luciferase-reporter construct (from Y. Li, University of Chicago) and then treated with test agents at indicated concentrations for 24 hours. The luciferase activity was then measured following the manufacturer's instructions (Promega, Madison, Wis.).

[5] = test system: Thrombomodulin mRNA in human coronary artery smooth muscle cells (CASMC); assay: Thrombomodulin mRNA in CASMC; settings: for EC50: Homo sapiens
Procedure: as §1, §2

[6] = test system: Thrombospondin mRNA in human coronary artery smooth muscle cells (CASMC); assay: Thrombospondin mRNA in CASMC; settings: for IC50: Homo sapiens
Procedure: as §1, §2

`C=C1[C@H](O)CC(=C/C=C2\CCC[C@]3(C)[C@@H]([C@H](C)COc4ccccc4)CC[C@@H]23)C[C@H]1O` [Example 12, (1R,3R,7E,17β)-2-methylene-17-[(1S)-1-methyl-2-phenoxyethyl]-9,10-secoestra-5,7-diene-1,3-diol] showed an IC50 [1] of 11.5 nM, an IC50 [2] of 0.2 nM and an EC50 [3] of 0.2 nM. The EC50 [4] was 16.9 nM, the EC50 [5] was 0.1 nM and the IC50 [6] was 0.02 nM.

With `C=C1[C@H](O)C/C(=C\C=C2/CCC[C@]3(C)[C@@H]([C@H](C)CCCC(C)(C)O)CC[C@@H]23)C[C@@H]1F` [Example 18, (1R,3S,5E,7E,17β)-3-fluoro-17-[(1R)-5-hydroxy-1,5-dimethylhexyl]-2-methylene-9,10-secoestra-5,7-dien-1-ol] the IC50 [2] was 0.1 nM, the EC50 [3] was 10 nM and the EC50 [4] was 11.3 nM.

`COC(C[C@@H](C)C(C)(C)OC)[C@@H](C)[C@H]1CC[C@H]2/C(=C/C=C3C[C@@H](O)C[C@H](O)C3)CCC[C@]12C` (stereo partly drawn) [Example 11, (1R,3R,7E,17β)-17-[(1S,4R)-2,5-dimethoxy-1,4,5-trimethylhexyl]-9,10-secoestra-5,7-diene-1,3-diol] gave an IC50 [1] of 0.01 nM, an IC50 [2] of 0.002 nM and an EC50 [3] of 310 nM. It also gave an EC50 [4] of 182 nM, an EC50 [5] of 28.4 nM and an IC50 [6] of 0.01 nM.

`C=C1[C@H](CO)C/C(=C\C=C2/CCC[C@]3(C)[C@@H]([C@H](C)CCCC(C)(C)O)CC[C@@H]23)C[C@H]1O` [Example 16, (1R,3R,5E,7E,17β)-17-[(1R)-5-hydroxy-1,5-dimethylhexyl]-3-(hydroxymethyl)-2-methylene-9,10-secoestra-5,7-dien-1-ol] showed an IC50 [2] of 14.7 nM, an EC50 [3] of 43 nM and an EC50 [4] of 71.7 nM.

`C=C1/C(=C\C=C2/CCC[C@]3(C)[C@@H]([C@H](C)C(C[C@@H](C)C(C)(C)OC)OC)CC[C@@H]23)C[C@@H](O)C[C@@H]1O` (stereo partly drawn) [Example 10, (1S,3R,5Z,7E,24R)-22,25-dimethoxy-9,1 0-secoergosta-5,7,10-triene-1,3-diol] showed an IC50 [1] of 0.04 nM, an IC50 [2] of 3.9 nM and an EC50 [3] of 621 nM. It also gave an EC50 [4] of 150 nM, an EC50 [5] of 0.2 nM and an IC50 [6] of 0.01 nM.

With `C=C1[C@H](O)CC(=C/C=C2\CCC[C@]3(C)[C@@H]([C@H](C)COC(=O)C(C)(C)O)CC[C@@H]23)C[C@H]1O` [Example 14, (2S)-2-[(1R,3R,7E,17β)-1,3-dihydroxy-2-methylene-9,10-secoestra-5,7-dien-17-yl]propyl 2-hydroxy-2-methylpropanoate] the IC50 [1] was 0.04 nM, the IC50 [2] was 0.03 nM and the EC50 [3] was 9 nM. For the same compound, the EC50 [4] was 0.6 nM, the EC50 [5] was 5.1 nM and the IC50 [6] was 0.02 nM.

`CC(C)[C@@H](C)CC[C@@H](C)[C@H]1CC[C@H]2/C(=C/C=C3C[C@@H](O)C[C@H](O)C3)CCC[C@]12C` [Example 9, (1R,3R,7E)-17-[(1R,4S)-1,4,5-trimethylhexyl]-9,10-secoestra-5,7-diene-1,3-diol] was tested, and the IC50 [1] was 0.1 nM, the “Renin mRNA in AS4.1 IC50” value [2] was “inactive” and the EC50 [3] was 434 nM. The EC50 [4] was > 10000 nM, the EC50 [5] was 0.1 nM and the IC50 [6] was 0.3 nM.

`C=C1[C@H](O)CC(=C/C=C2\CCC[C@]3(C)[C@@H]([C@H](C)OCCC(C)(C)O)CC[C@@H]23)C[C@H]1O` [Example 8, (1R,3R,7E,17β)-17-[(1S)-1-(3-hydroxy-3-methylbutoxy)ethyl]-2-methylene-9,10-secoestra-5,7-diene-1,3-diol] was tested, and the IC50 [1] was 0.02 nM, the IC50 [2] was 0.3 nM and the EC50 [3] was 31.5 nM. The EC50 [4] was < 0.01 nM, the EC50 [5] was 39.3 nM and the IC50 [6] was 0.05 nM.

In the case of `C=C1[C@H](CO)C/C(=C\C=C2/CCC[C@]3(C)[C@@H]([C@H](C)OCCC(C)(C)O)CC[C@@H]23)C[C@H]1O` [Example 17, (1R,3R,5E,7E,17β)-3-(hydroxymethyl)-17-[(1S)-1-(3-hydroxy-3-methylbutoxy)ethyl]-2-methylene-9,10-secoestra-5,7-dien-1-ol], the IC50 [2] is reported as 2.2 nM, the EC50 [3] is reported as 92.5 nM and the EC50 [4] is reported as 153 nM.

Work on `C[C@H](CC[C@@H](C)C(C)(C)O)[C@H]1CC[C@H]2/C(=C/C=C3C[C@@H](O)C[C@H](O)C3)CCC[C@]12C` [Example 15, (1R,3R,7E,17β)-17-[(1R,4R)-5-hydroxy-1,4,5-trimethylhexyl]-9,10-secoestra-5,7-diene-1,3-diol] yielded an IC50 [1] of 0.01 nM, an IC50 [2] of 0.04 nM and an EC50 [3] of 1.2 nM. For the same compound, the EC50 [4] was 0.4 nM, the EC50 [5] was 10.7 nM and the “Thrombospondin mRNA in CASMC IC50” value [6] was “inactive”.

For `C=C1[C@H](O)CC(=C/C=C2\CCC[C@]3(C)[C@@H]([C@H](C)CC[C@H](C)C(C)C)CC[C@@H]23)C[C@H]1O` [Example 7, (1R,3R,7E)-2-methylene-17-[(1R,4S)-1,4,5-trimethylhexyl]-9,10-secoestra-5,7-diene-1,3-diol], the IC50 [1] was 0.1 nM, the IC50 [2] was 0.1 nM and the EC50 [3] was 12.5 nM. The EC50 [4] was 12.2 nM, the EC50 [5] was 0.6 nM and the IC50 [6] was 0.1 nM.

`C=C1[C@H](O)C/C(=C/C=C2\CCC[C@]3(C)[C@@H]([C@H](C)CCCC(C)(C)O)CC[C@@H]23)C[C@@H]1F` [Example 13, (1R,3S,5Z,7E,17β)-3-fluoro-17-[(1R)-5-hydroxy-1,5-dimethylhexyl]-2-methylene-9,10-secoestra-5,7-dien-1-ol] was tested, and the IC50 [1] was 0.01 nM, the IC50 [2] was 0.9 nM and the EC50 [3] was 52 nM. It also gave an EC50 [4] of 276 nM, an EC50 [5] of 80.2 nM and an IC50 [6] of 0.03 nM.

With `C=C1[C@H](O)CC(=C/C=C2\CCC[C@]3(C)[C@@H]([C@H](C)COC(=O)C(C)(C)OC(C)=O)CC[C@@H]23)C[C@H]1O` [Example 6, (2S)-2-[(1R,3R,7E,17β)-1,3-dihydroxy-2-methylene-9,10-secoestra-5,7-dien-17-yl]propyl 2-(acetyloxy)-2-methyl propanoate] the “PAI-1 mRNA in CASMC IC50” value [1] was “inactive”, the IC50 [2] was 18.6 nM and the EC50 [3] was 12 nM. For the same compound, the EC50 [4] was 1.3 nM, the “Thrombomodulin mRNA in CASMC EC50” value [5] was “inactive” and the IC50 [6] was 1.3 nM.
